Two molecules from ChEMBL document CHEMBL4715829, “Heterodimeric Rifampicin-Tobramycin conjugates break intrinsic resistance of Pseudomonas aeruginosa to doxycycline and chloramphenicol in vitro and in a Galleria mellonella in vivo model” (Eur J Med Chem, 2019) can be followed below.

Structures are written as SMILES. Values after ≈ are worked out from the molar mass of the structure shown.

What all share (assay type): functional
Experiment [1] concerns Staphylococcus epidermidis. Nature of the experiment: Antibacterial activity against methicillin-susceptible Staphylococcus epidermidis CANWARD 81388 assessed as reduction in bacterial growth incubated for 18 hrs by broth microdilution assay.
For experiment [2], the system named is Escherichia coli. Description: Antibacterial activity against gentamicin-resistant Escherichia coli CAN-ICU 61714 assessed as reduction in bacterial growth incubated for 18 hrs by broth microdilution assay.
Experiment [3] deals with Escherichia coli. Description: Antibacterial activity against Escherichia coli CAN-ICU 63074 (AMK 32) assessed as reduction in bacterial growth incubated for 18 hrs by broth microdilution assay.
Experiment [4] relates to Escherichia coli. Nature of the experiment: Antibacterial activity against gentamicin, tobramycin, ciprofloxacin-resistant Escherichia coli ATCC 97615 harboring aac(3')IIa gene assessed as reduction in bacterial growth incubated for 18 hrs by broth microdilution assay.
In experiment [5] the test system is Pseudomonas aeruginosa. Nature of the experiment: Antibacterial activity against gentamicin-resistant Pseudomonas aeruginosa CAN-ICU 62308 assessed as reduction in bacterial growth incubated for 18 hrs by broth microdilution assay. Background: In broth dilution the organism is exposed to a series of concentrations in liquid medium.
The subject of experiment [6] is Acinetobacter baumannii. Nature of the experiment: Antibacterial activity against Acinetobacter baumannii CAN-ICU 63169 assessed as reduction in bacterial growth incubated for 18 hrs by broth microdilution assay.
The test system of experiment [7] is Klebsiella pneumoniae. Description: Antibacterial activity against Klebsiella pneumoniae ATCC 13883 assessed as reduction in bacterial growth incubated for 18 hrs by broth microdilution assay.
Experiment [8] relates to Pseudomonas aeruginosa. Description: Antibacterial activity against Pseudomonas aeruginosa 101243 assessed as fractional inhibitory concentration index in presence of doxycycline incubated for 18 hrs by broth microdilution assay.
Experiment [9] deals with Pseudomonas aeruginosa. Nature of the experiment: Antibacterial activity against Pseudomonas aeruginosa 101243 assessed as fractional inhibitory concentration index in presence of chloramphenicol incubated for 18 hrs by broth microdilution assay.
Experiment [10] has as its system Pseudomonas aeruginosa. Nature of the experiment: Antibacterial activity against Pseudomonas aeruginosa 91433 assessed as reduction in bacterial growth incubated for 18 hrs by broth microdilution assay.
For experiment [11], the system named is Pseudomonas aeruginosa. Nature of the experiment: Antibacterial activity against Pseudomonas aeruginosa 259-96918 assessed as fractional inhibitory concentration index in presence of chloramphenicol incubated for 18 hrs by broth microdilution assay.
The test system of experiment [12] is Pseudomonas aeruginosa. Nature of the experiment: Antibacterial activity against Pseudomonas aeruginosa 260-97103 assessed as fractional inhibitory concentration index in presence of chloramphenicol incubated for 18 hrs by broth microdilution assay.
For experiment [13], the system named is Pseudomonas aeruginosa. Nature of the experiment: Antibacterial activity against Pseudomonas aeruginosa 91433 assessed as fractional inhibitory concentration index in presence of doxycycline incubated for 18 hrs by broth microdilution assay.
Experiment [14] has as its system Pseudomonas aeruginosa. Description: Antibacterial activity against Pseudomonas aeruginosa 91433 assessed as fractional inhibitory concentration index in presence of chloramphenicol incubated for 18 hrs by broth microdilution assay.

Take `CO[C@H]1/C=C/O[C@@]2(C)Oc3c(C)c(O)c4c(O)c(c(/C=N/N5CCN(C)CC5)c(O)c4c3C2=O)NC(=O)/C(C)=C\C=C\[C@H](C)[C@H](O)[C@@H](C)[C@@H](O)[C@@H](C)[C@H](OC(C)=O)[C@@H]1C` [RIFAMPIN]: the MIC in experiment [1] is at most 0.25 µg/mL; in [2] it was 8 µg/mL (≈ 9.72 µM); in experiment [3] it was 16 µg/mL (≈ 19.4 µM); in experiment [4], 16 µg/mL (≈ 19.4 µM); in [5], 32 µg/mL (≈ 38.9 µM); in experiment [6] it was 8 µg/mL (≈ 9.72 µM). The MIC in [7] and in experiment [10] was 16 µg/mL (≈ 19.4 µM) throughout. Also, the “fractional inhibitory concentration index (FICI)” value in experiment [8] and in [9] was 1.5 in each case.
For `NC[C@H]1O[C@H](O[C@H]2[C@H](O)[C@@H](O[C@H]3O[C@H](CO)[C@@H](O)[C@H](N)[C@H]3O)[C@H](N)C[C@@H]2N)[C@H](N)C[C@@H]1O` [TOBRAMYCIN], the MIC in experiment [1] is at most 0.25 µg/mL; in experiment [2], 8 µg/mL (≈ 17.1 µM); in [3], 8 µg/mL (≈ 17.1 µM); in [4] it was 128 µg/mL (≈ 274 µM); in experiment [5], 16 µg/mL (≈ 34.2 µM); in experiment [6] it was 32 µg/mL (≈ 68.4 µM). Besides, the MIC was at most 0.25 µg/mL in experiment [7] and 16 µg/mL (≈ 34.2 µM) in experiment [10]. For the same molecule, the “fractional inhibitory concentration index (FICI)” value was 1.5 in experiment [8]; 1.5 in experiment [9]; 1.25 in experiment [11]; 1 in [12]; 1.5 in experiment [13]; 1.5 in experiment [14].

As a reminder, the MIC is the least concentration at which growth counts as inhibited.
